Biological target: Casein kinase I isoform delta (Homo sapiens) (UniProt P48730)
Assay: Inhibition of human CK1delta (1 to 415 residues) assessed as residual activity at 500 nM in presence of 33P-ATP by filter binding assay relative to control

Sequence of Casein kinase I isoform delta (Homo sapiens) (P48730 whole entry, looked up, the tested form may be a part, canonical isoform): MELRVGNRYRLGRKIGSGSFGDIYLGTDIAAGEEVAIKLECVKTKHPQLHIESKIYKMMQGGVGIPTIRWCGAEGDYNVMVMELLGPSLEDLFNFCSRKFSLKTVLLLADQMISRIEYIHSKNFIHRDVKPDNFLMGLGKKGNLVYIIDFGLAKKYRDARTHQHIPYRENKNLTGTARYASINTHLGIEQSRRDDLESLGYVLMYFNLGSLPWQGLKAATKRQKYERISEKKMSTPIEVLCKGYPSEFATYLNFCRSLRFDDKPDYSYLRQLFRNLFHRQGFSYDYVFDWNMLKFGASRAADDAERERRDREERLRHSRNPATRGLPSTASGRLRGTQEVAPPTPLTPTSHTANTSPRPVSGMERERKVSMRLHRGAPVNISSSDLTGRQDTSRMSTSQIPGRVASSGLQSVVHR

Cc1cccc(-c2nc(N)sc2-c2ccc3ncccc3n2)c1
Activity: 97%

— ChEMBL document CHEMBL4177526, “Discovery and structure activity relationship of the first potent cryptosporidium FIKK kinase inhibitor” (Bioorg Med Chem, 2017)
